Our source for the IC50 values is US12552780B2, “Small molecule compound serving as jak kinase inhibitor, and use thereof” (TECHNODERMA MEDICINES, INC., priority 2020, dated 2026).

Like-named read-outs stand apart in the source and are kept apart here.

Common to all, as to assay type: biochemical
One assay deals with Tyk2 (Homo sapiens, UniProt P29597). The experiment in a line: Detection of enzyme activity inhibition of JAK kinases (ULight-JAK substrate, Eu-antibody), Tyk2. The conditions noted are these: ATP 10 μM, substrate 50 nM, 1 hour reaction at room temperature, read-out: Tyk2 half-maximum inhibitory concentration (IC50). The procedure: (§1) Kinase reaction buffer: The kinase reaction buffer was prepared with the following components: 50 mM HEPES, pH 7.5, 1 mM EGTA, 10 mM MgCl2, 2 mM DTT, and 0.01% Tween20. 1× test buffer: A test buffer was prepared, and the 10× test buffer was diluted with deionized water (deionized water: test buffer=9:1) to obtain the 1× test buffer. 4× kinase solution: JAK kinase was diluted with a kinase reaction buffer to a final concentration of 4× (JAK1:80 nM, JAK2/JAK3/Tyk2:4 nM). 4× substrate solution: ULight™-JAK (Tyr1023) substrate was diluted with the kinase reaction buffer to 200 nM (final concentration: 50 nM). 4× ATP solution: ATP was diluted with the kinase reaction buffer to a final concentration of 4× (JAK1:160 μM, JAK2/JAK3/Tyk2: 40 μM). 4× test compound solution: The compounds to be tested were dissolved in DMSO to prepare 10 mM stock solutions, which were diluted to have the desired concentrations through 3-fold gradient dilution, 10 concentrations were set for each compound, and final concentrations of the test compounds ranged from 10 μM to 0.5 nM. 4× enzyme reaction termination solution: EDTA was dissolved in a 1× test buffer to 40 mM (final concentration of EDTA: 10 mM). 4× test antibody solution: Eu-labeled test antibodies (anti-phosphotyrosine (PT66)) were diluted with 1× test buffer to 8 nM (final concentration of the antibodies: 2 nM). 2.5 μL of the 4× kinase solution and 2.5 μL of each of the 4× test compound solutions having different concentrations were added into a 384-well microwell plate sequentially, with 2 duplicate wells set for each concentration, and an enzyme solution blank control group and a negative control group (DMSO group) were also provided. The 384-well plate was oscillated to mix the enzyme and the compound uniformly, centrifuged at 1000 rpm for 1 minute, and incubated at room temperature for 60 minutes. 2.5 μL of the 4× substrate solution was added into the 384-well plate, and centrifuged at 1000 rpm for 1 minute. 2.5 μL of the 4× ATP solution was added into the 384-well plate, and centrifuged at 1000 rpm for 1 minute to start the enzyme reaction. JAK1 reacted at room temperature for 2 hours, and JAK2/JAK3/Tyk2 reacted at room temperature for 1 hour. The final concentration of each component in the JAK1 reaction was: JAK1:20 nM; substrate: 50 nM; and ATP: 40 μM. The final concentrations of the test compounds ranged from 10 μM to 0.5 nM. The final concentration of each component in the JAK2/JAK3/Tyk2 reaction was: JAK2:1 nM; substrate: 50 nM; and ATP: 10 μM. The final concentrations of the test compounds ranged from 10 μM to 0.5 nM. After the enzyme reaction ended, 5 μL of the 4× enzyme reaction termination solution was added into each well of the 384-well plate, centrifuged at 1000 rpm for 1 minute, and incubated at room temperature for 5 minutes. 5 μL of the 4× test antibody solution (final concentration of the test antibodies was 2 nM) was added into each well of the 384-well plate, centrifuged at 1000 rpm for 1 minute, and incubated at room temperature for 1 hour. After incubation of the antibodies, a signal value of each well was measured with Envision plate reader. Assuming that an inhibition rate of the enzyme solution blank control group was 100% and an inhibition rate of the negative control group (DMSO group) was 0%, an inhibition rate corresponding to each concentration was calculated. Nonlinear regression analysis was performed on the concentration logarithm values and corresponding percentage inhibition rates of the test compounds in GraphPad Prism software to obtain the half-maximum inhibitory concentrations (IC50) of the test compounds.

A further assay addresses JAK1 (Homo sapiens, UniProt P23458). In words: Detection of enzyme activity inhibition of JAK kinases (ULight-JAK substrate, Eu-antibody), JAK1. The settings on record: JAK1 20 nM, ATP 40 μM, substrate 50 nM, 2 hours reaction at room temperature, read-out: JAK1 half-maximum inhibitory concentration (IC50). As for the experimental part: as §1
For a further assay, the target named is JAK2 (Homo sapiens, UniProt O60674). In words: Detection of enzyme activity inhibition of JAK kinases (ULight-JAK substrate, Eu-antibody), JAK2. The conditions noted are these: JAK2 1 nM, ATP 10 μM, substrate 50 nM, 1 hour reaction at room temperature, read-out: JAK2 half-maximum inhibitory concentration (IC50). As for the experimental part: as §1
The next assay concerns the target T1, JAK3 (Homo sapiens, UniProt P52333).
T1 sequence (P52333 1-1124): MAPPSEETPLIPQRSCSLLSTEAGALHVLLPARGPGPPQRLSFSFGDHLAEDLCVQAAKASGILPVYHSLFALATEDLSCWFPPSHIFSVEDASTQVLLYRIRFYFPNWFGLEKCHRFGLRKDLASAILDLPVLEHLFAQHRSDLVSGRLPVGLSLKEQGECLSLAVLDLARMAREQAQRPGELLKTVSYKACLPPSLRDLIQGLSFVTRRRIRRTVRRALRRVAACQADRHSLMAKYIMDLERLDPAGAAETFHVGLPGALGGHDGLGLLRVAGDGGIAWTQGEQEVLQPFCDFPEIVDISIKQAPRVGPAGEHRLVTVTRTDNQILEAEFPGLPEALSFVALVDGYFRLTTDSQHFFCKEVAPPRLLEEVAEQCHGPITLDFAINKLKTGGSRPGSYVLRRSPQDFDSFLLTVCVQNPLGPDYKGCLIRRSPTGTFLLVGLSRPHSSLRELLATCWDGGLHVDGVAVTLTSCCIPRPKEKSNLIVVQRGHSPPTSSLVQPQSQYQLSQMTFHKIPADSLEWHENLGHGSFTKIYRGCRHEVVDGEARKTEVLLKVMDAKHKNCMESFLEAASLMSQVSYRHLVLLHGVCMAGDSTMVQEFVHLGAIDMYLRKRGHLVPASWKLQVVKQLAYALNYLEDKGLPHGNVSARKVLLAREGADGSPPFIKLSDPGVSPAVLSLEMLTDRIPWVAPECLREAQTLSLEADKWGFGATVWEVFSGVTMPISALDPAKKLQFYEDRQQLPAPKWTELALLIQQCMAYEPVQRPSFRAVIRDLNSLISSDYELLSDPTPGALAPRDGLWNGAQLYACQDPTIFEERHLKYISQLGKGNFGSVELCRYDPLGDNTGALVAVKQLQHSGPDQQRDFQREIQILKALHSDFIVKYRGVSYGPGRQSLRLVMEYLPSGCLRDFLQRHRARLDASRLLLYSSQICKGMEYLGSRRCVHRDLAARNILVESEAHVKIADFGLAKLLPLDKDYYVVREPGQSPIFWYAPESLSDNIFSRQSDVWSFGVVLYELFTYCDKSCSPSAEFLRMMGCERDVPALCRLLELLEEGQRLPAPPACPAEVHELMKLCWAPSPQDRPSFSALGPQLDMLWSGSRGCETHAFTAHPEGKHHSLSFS
The experiment in a line: Detection of enzyme activity inhibition of JAK kinases (ULight-JAK substrate, Eu-antibody), JAK3. The conditions noted are these: ATP 10 μM, substrate 50 nM, 1 hour reaction at room temperature; read-out: JAK3 half-maximum inhibitory concentration (IC50). As for the experimental part: as §1

JAK2, sequence (O60674 whole entry): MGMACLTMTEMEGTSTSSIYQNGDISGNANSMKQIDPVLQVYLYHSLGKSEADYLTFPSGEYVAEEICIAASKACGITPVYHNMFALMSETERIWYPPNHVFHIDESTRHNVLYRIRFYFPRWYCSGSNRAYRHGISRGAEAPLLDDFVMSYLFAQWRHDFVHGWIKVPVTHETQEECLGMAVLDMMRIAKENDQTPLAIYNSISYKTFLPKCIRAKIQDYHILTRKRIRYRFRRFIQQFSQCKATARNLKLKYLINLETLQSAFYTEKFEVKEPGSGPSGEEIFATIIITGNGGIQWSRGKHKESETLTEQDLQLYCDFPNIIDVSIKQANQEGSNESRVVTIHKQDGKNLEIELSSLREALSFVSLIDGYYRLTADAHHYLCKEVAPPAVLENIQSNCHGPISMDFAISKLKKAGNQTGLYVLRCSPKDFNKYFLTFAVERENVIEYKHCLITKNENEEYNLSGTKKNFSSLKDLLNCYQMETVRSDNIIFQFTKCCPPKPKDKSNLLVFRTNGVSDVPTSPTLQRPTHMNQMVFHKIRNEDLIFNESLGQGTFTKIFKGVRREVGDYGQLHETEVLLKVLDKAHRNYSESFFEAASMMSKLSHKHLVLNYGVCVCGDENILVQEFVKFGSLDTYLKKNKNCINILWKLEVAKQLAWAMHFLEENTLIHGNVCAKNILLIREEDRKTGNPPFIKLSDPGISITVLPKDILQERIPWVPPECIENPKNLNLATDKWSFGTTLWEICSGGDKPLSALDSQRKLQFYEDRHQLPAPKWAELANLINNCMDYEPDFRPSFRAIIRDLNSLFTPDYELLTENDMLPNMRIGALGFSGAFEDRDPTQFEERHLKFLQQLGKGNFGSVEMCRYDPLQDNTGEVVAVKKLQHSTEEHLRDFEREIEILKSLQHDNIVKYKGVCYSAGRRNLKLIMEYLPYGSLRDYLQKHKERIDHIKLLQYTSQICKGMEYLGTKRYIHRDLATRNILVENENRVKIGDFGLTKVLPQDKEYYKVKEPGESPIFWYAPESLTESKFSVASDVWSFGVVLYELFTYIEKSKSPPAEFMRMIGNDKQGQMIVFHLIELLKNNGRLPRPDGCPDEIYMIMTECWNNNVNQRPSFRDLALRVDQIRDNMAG
Tyk2, sequence (P29597 whole entry): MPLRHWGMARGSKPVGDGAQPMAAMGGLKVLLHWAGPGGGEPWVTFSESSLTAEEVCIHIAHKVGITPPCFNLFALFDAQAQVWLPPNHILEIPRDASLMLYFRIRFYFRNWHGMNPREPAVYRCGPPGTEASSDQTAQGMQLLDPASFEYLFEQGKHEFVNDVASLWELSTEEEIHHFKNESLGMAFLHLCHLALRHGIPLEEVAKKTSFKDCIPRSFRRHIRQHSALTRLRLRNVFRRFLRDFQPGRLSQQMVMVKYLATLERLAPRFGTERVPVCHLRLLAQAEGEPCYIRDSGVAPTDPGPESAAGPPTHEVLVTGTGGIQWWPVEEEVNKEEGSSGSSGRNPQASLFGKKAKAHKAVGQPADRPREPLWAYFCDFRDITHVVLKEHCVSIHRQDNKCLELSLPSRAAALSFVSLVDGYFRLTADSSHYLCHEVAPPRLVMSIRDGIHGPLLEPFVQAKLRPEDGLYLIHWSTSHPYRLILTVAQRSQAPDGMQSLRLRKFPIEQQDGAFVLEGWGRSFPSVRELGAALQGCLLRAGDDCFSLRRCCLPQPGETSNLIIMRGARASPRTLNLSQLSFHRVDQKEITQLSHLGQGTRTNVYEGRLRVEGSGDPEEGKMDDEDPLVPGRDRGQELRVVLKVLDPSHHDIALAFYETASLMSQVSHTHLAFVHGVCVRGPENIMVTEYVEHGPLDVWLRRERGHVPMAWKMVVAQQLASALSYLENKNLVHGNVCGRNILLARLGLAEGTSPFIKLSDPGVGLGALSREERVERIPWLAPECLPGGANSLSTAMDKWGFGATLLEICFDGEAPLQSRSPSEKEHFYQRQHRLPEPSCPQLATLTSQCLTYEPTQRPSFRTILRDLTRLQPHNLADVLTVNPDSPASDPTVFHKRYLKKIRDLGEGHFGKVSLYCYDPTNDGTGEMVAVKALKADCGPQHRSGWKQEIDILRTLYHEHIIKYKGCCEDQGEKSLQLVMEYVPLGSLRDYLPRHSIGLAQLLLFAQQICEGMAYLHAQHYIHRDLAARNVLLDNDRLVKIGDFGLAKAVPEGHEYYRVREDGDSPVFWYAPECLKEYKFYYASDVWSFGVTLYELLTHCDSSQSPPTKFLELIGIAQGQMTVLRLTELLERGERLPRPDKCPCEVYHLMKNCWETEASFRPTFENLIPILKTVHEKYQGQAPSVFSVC
JAK1, sequence (P23458 whole entry): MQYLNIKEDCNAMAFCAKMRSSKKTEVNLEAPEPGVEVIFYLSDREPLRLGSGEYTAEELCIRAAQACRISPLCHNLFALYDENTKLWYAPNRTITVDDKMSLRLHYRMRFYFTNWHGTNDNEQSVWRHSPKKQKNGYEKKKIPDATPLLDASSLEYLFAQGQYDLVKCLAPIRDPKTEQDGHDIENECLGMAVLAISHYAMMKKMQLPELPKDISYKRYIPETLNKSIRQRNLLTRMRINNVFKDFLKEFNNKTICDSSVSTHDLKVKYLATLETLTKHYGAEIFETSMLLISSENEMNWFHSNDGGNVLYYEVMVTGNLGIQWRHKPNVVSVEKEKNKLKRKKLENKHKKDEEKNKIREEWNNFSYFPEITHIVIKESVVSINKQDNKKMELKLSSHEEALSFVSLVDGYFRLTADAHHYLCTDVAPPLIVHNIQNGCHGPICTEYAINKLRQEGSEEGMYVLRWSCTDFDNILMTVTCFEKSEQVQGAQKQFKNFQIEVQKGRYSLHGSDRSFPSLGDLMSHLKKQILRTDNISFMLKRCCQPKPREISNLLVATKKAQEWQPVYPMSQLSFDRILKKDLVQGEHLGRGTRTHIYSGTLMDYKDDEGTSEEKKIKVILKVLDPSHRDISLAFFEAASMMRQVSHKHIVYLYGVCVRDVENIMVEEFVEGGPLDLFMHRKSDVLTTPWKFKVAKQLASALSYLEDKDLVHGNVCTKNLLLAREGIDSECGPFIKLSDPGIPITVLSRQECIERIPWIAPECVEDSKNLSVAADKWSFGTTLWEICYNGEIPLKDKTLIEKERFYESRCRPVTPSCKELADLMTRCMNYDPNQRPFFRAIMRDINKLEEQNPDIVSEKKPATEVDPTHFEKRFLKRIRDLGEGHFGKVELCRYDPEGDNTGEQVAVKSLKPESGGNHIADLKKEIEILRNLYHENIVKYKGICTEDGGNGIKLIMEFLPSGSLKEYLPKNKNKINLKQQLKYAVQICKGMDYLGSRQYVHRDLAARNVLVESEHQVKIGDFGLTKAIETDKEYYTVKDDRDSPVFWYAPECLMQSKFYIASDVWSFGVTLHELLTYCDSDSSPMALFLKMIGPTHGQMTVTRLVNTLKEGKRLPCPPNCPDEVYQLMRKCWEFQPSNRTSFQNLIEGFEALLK

As to `CNC(=O)c1ncc(Nc2nccc(-c3cnn(C4(CC#N)CN(C(=O)[C@@H]5CC5(F)F)C4)c3)n2)cc1C` [TDM-180985, (S)-5-((4-(1-(3-(cyanomethyl)-1-(2,2-difluorocyclopropane-1-carbonyl)azetidin-3-yl)-1H-pyrazol-4-yl)pyrimidin-2-yl)amino)-N,3-dimethylpyridinecarboxamide], the IC50 on Tyk2 amounted to 0.021 µM; at JAK1, 0.054 µM; on JAK2, 0.064 µM; at JAK3 it was 2.37 µM.

For the compound `CCNC(=O)c1ccc(Nc2nccc(-c3cnn(C4(CC#N)CN(C(=O)[C@@H]5CC5(F)F)C4)c3)n2)cc1` [TDM-180982, (S)-4-((4-(1-(3-(cyanomethyl)-1-(2,2-difluorocyclopropane-1-carbony)azetidn-3-yl)-1H-pyrazol-4-yl)pyrimidin-2-yl)amino)-N-ethylbenzamide], the IC50 is 0.019 µM at Tyk2, 0.018 µM on JAK1, 0.022 µM on JAK2 and 1.3 µM at JAK3.

For `CNC(=O)c1ncc(Nc2nccc(-c3ccn(C4(CC#N)CN(C(=O)[C@@H]5CC5(F)F)C4)c3)n2)cc1C` [TDM-180976, (S)-5-((4-(1-(3-(cyanomethyl)-1-(2,2-difluorocyclopropane-1-carbonyl)azetidin-3-yl)-1H-pyrrol-3-yl)pyrimidin-2-yl)amino)-N,3-dimethylpyridinecarboxamide], the IC50 on Tyk2 worked out at 0.009 µM; at JAK1, 0.009 µM; on JAK2, 0.013 µM; at JAK3, 0.599 µM.

For the compound `Cc1cc(Nc2nccc(-c3cnn(C4(CC#N)CN(C(=O)[C@@H]5CC5(F)F)C4)c3)n2)cnc1C(N)=O` [TDM-180986, (S)-5-((4-(1-(3-(cyanomethyl)-1-(2,2-difluorocyclopropane-1-carbonyl)azetidin-3-yl)-1H-pyrazol-4-yl)pyrimidin2-yl)amino)-3-methylpyridinolineamide], the IC50 at Tyk2 was found to be 0.056 µM; on JAK1 it was 0.125 µM; at JAK2 it was 0.052 µM; at JAK3, 3.06 µM.

In the case of `CC(CO)c1ccc(Nc2nccc(-c3cnn(C4(CC#N)CN(C(=O)[C@@H]5CC5(F)F)C4)c3)n2)cn1` (stereo partly drawn) [TDM-180990, 2-(1-((S)-2,2-difluorocyclopropane-1-carbonyl)-3-(4-(2-((6-(1-hydroxypropan-2-yl)pyridine-3-yl)amino)pyrimidin-4-yl)-1H-pyrazol-1-yl)azetidin-3-yl)acetonitrile], the figures for the IC50 at Tyk2 and on JAK1 were 0.112 µM and 0.224 µM, respectively.

Take `CCNC(=O)c1ccc(Nc2nccc(-c3ccn(C4(CC#N)CN(C(=O)[C@@H]5CC5(F)F)C4)c3)n2)cc1` [TDM-180973, (S)-4-((4-(1-(3-(cyanomethyl)-1-(2,2-difluorocyclopropane-1-carbonyl)azetidin-3-yl)-1H-pyrrol-3-yl)pyrimidin-2-yl)amino)-N-ethylbenzamide]: the IC50 came to 0.007 µM on Tyk2, 0.009 µM on JAK2 and 0.443 µM at JAK3.

Regarding `CCNC(=O)c1ccc(Nc2nccc(-c3cnn(C4(CC#N)CN(C(=O)[C@@H]5CC5(F)F)C4)c3)n2)cc1C` [TDM-180983], the IC50 on Tyk2 is 0.017 µM; at JAK1 it was 0.045 µM; on JAK2 it was 0.027 µM; at JAK3, 0.791 µM.

For `CC(CO)c1ccc(Nc2nccc(-c3ccn(C4(CC#N)CN(C(=O)[C@@H]5CC5(F)F)C4)c3)n2)cn1` (stereo partly drawn) [TDM-180996, 2-(1-((S)-2,2-difluorocyclopropane-1-carbonyl)-3-(3-(2-((6-(1-hydroxypropan-2-yl)pyridine-3-yl)amino)pyrimidin-4-yl)-1H-pyrrol-1-yl)azetidin-3-yl) acetonitrile], the IC50 turned out to be 0.039 µM on Tyk2, 0.055 µM at JAK1, 0.038 µM on JAK2 and 0.843 µM at JAK3.

Consider “(S)-4-((4-(1-(3-(cyanomethyl)-1-(2,2-difluorocyclopropane-1-carbonyl)azetidin-3-yl)-1H-pyrrol-3-yi)pyrimidin-2-yl)amino)-N-ethyl-2-methylbenzamide [TDM-180978]”, for which the IC50 at Tyk2 (listed as TDM-18097) is around 0.01 µM; at Tyk2, 0.011 µM; at JAK1 (listed as TDM-18097), around 0.01 µM; at JAK1, 0.007 µM; at JAK2 (listed as TDM-18097) it was around 0.01 µM; at JAK2 it was 0.012 µM. Moreover, at JAK3, the IC50 was 0.28 µM.

For `Cc1cc(Nc2nccc(-c3ccn(C4(CC#N)CN(C(=O)[C@@H]5CC5(F)F)C4)c3)n2)cnc1C(N)=O` [TDM-180975, (S)-5-((4-(1-(3-(cyanomethyl)-1-(2,2-difluorocyclopropane-1-carbonyl)azetidin-3-yl)-1H-pyrrol-3-yl)pyrimidin-2-yl)amino)-3-methylpyridinolineamide], the IC50 at Tyk2 came out at 0.008 µM; at JAK1, 0.012 µM; on JAK2, 0.007 µM; on JAK3 it was 0.674 µM.
